Measurements as given in PMC8342319, “Predicting blood-to-plasma concentration ratios of drugs from chemical structures and volumes of distribution in humans” (Molecular Diversity, 2021).
Like-named read-outs stand apart in the source and are kept apart here.

Legend:
[1] = human, cited from earlier work
[2] = tested on: plasma protein; settings: cited from earlier work; for fp_Human (free fraction in plasma): human
[3] = human, cited from earlier work; for Rb_Human: blood-to-plasma concentration ratio, median if multiple values reported, Reference of Table S1
[4] = cited from earlier work
[5] = human
[6] = intravenous, median if multiple values were reported, ref numbers in Table S1
[7] = collected value, median if multiple values were reported, ref: Table S1
[8] = median if multiple values were reported, ref numbers in Table S1
[9] = human, intravenous, median if multiple values were reported, ref numbers in Table S1
[10] = intravenous, median if multiple values reported, Reference of Table S1
[11] = free fraction in human plasma, median if multiple values reported, Reference of Table S1
[12] = human, intravenous, median if multiple values reported, Reference of Table S1

Row | Compound | in vivo Vd_(L/kg)_Human [1, 6] | fp_Human (free fraction in plasma) [2, 7] | Rb_Human (blood-to-plasma concentration ratio) [3, 8] | in vivo CL_(L/hr/kg)_Human [4, 9] | in vivo MRT_(hr)_Human [5] | in vivo Vd_(L/kg)_Human [1, 10] | fp_Human [2, 11] | Rb_Human [3] | further results
1 | CC(C)NCC(O)COc1ccc(CCOCC2CC2)cc1 (centres unmarked) [Betaxolol] | 4.800 L/kg | 0.495 | 0.79 | 0.204 L/h/kg | 23.529 h | – | – | – | –
2 | CC[C@H](C)C[C@H](C)CCCCCCCCC(=O)N[C@H]1C[C@@H](O)[C@@H](NCCN)NC(=O)[C@@H]2[C@@H](O)CCN2C(=O)[C@H]([C@H](O)CCN)NC(=O)[C@H]([C@H](O)[C@@H](O)c2ccc(O)cc2)NC(=O)[C@@H]2C[C@@H](O)CN2C(=O)[C@H]([C@@H](C)O)NC1=O [Caspofungin] | – | – | – | – | 15.476 h | – | – | – | in vivo Vd_(L/kg)_Human ([1]; in vivo, iv): 0.130 L/kg; fp_Human (free fraction in plasma) ([2]; plasma): 0.035; Rb_Human (blood-to-plasma concentration ratio) ([3]; plasma): 0.74; in vivo CL_(L/hr/kg)_Human ([4]; in vivo, iv): 0.008 L/h/kg
3 | CO[C@@]1(NC(=O)C2SC(=C(C(N)=O)C(=O)O)S2)C(=O)N2C(C(=O)O)=C(CSc3nnnn3C)CS[C@@H]21 (some centres unmarked) [Cefotetan] | 0.130 L/kg | 0.150 | 0.65 | 0.025 L/h/kg | 5.159 h | – | – | – | –
4 | CC(C)(O/N=C(\C(=O)N[C@@H]1C(=O)N2C(C(=O)[O-])=C(C[n+]3ccccc3)CS[C@H]12)c1csc(N)n1)C(=O)O [Ceftazidime] | 0.310 L/kg | 0.790 | 0.72 | 0.144 L/h/kg | 2.153 h | – | – | – | –
5 | CN(C)CCC(c1ccc(Cl)cc1)c1ccccn1 (centres unmarked) [Chlorpheniramine] | 3.300 L/kg | 0.280 | 1.34 | 0.150 L/h/kg | 22.000 h | – | – | – | –
6 | Clc1cccc(Cl)c1N=C1NCCN1 [Clonidine] | 3.300 L/kg | 0.560 | 1.04 | 0.213 L/h/kg | 13.750 h | – | – | – | –
7 | OCCN1CCN(CCCN2c3ccccc3Sc3ccc(C(F)(F)F)cc32)CC1 [Fluphenazine] | 2.900 L/kg | 0.040 | 0.69 | 0.591 L/h/kg | 4.983 h | – | – | – | –
8 | C[C@@H]1C[C@H]2[C@@H]3C[C@H](F)C4=CC(=O)C=C[C@]4(C)[C@@]3(F)[C@@H](O)C[C@]2(C)[C@@]1(O)C(=O)SCF [Fluticasone] | 3.600 L/kg | 0.100 | 0.60 | 1.020 L/h/kg | 3.529 h | – | – | – | –
9 | CCCCC1=NC2(CCCC2)C(=O)N1Cc1ccc(-c2ccccc2-c2nnn[nH]2)cc1 [Irbesartan] | 0.940 L/kg | 0.100 | 0.60 | 0.133 L/h/kg | 6.812 h | – | – | – | –
10 | CNCCCC12CCC(c3ccccc31)c1ccccc12 [Maprotiline] | 45.000 L/kg | 0.115 | 1.70 | 0.840 L/h/kg | 53.571 h | – | – | – | –
11 | N[C@@H](Cc1ccc(N(CCCl)CCCl)cc1)C(=O)O [Melphalan] | – | 0.120 | – | 0.366 L/h/kg | 1.143 h | – | – | – | in vivo Vd_(L/kg)_Human ([1]; in vivo, iv): 0.480 L/kg; Rb_Human (blood-to-plasma concentration ratio) ([3]; plasma): 0.96
12 | CCOC(=O)C1(c2ccccc2)CCN(C)CC1 [Meperidine] | 3.350 L/kg | 0.380 | 1.01 | 1.020 L/h/kg | 11.395 h | – | – | – | –
13 | Cc1cccc(C)c1OCC(C)N (centres unmarked) [Mexiletine] | 5.900 L/kg | 0.350 | 1.12 | 0.498 L/h/kg | 11.847 h | – | – | – | –
14 | CCOc1ccc(NC(C)=O)cc1 [Phenacetin] | – | – | – | – | 1.111 h | 1.400 L/kg | 0.470 | 1.01 | –
15 | CC(C)NCC(O)COc1cccc2[nH]ccc12 (centres unmarked) [Pindolol] | – | – | – | – | 2.597 h | 1.200 L/kg | 0.580 | 0.69 | –
16 | CNC(=C[N+](=O)[O-])NCCSCc1ccc(CN(C)C)o1 [Ranitidine] | – | – | – | – | 2.083 h | 1.200 L/kg | 0.900 | 1.00 | –
17 | CC(C)NCC(O)c1ccc(NS(C)(=O)=O)cc1 (centres unmarked) [Sotalol] | – | – | – | – | 10.833 h | 1.300 L/kg | 0.810 | 1.07 | –
18 | COc1ccccc1Oc1c(NS(=O)(=O)c2ccc(C(C)C)cn2)nc(-c2ccnc(-c3nnn[nH]3)c2)nc1OCCO [Tezosentan] | – | – | – | – | – | 0.280 L/kg | 0.0085 | 0.60 | in vivo CL_(L/hr/kg)_Human [4, 12]: 0.486 L/h/kg
19 | CC(C)(C)NC[C@H](O)COc1nsnc1N1CCOCC1 [Timolol] | – | – | – | – | – | 1.500 L/kg | 0.491 | 0.84 | in vivo CL_(L/hr/kg)_Human [4, 12]: 0.462 L/h/kg
20 | Nc1nc(N)c2nc(-c3ccccc3)c(N)nc2n1 [Triamterene] | – | – | – | – | – | 13.000 L/kg | 0.420 | 1.03 | in vivo CL_(L/hr/kg)_Human [4, 12]: 3.780 L/h/kg
21 | COc1cc(Cc2cnc(N)nc2N)cc(OC)c1OC [Trimethoprim] | – | – | – | – | 11.905 h | 1.500 L/kg | 0.500 | 1.03 | –
22 | Cc1c(C)c2c(c(C)c1O)CCC(C)(COc1ccc(CC3SC(=O)NC3=O)cc1)O2 (centres unmarked) [Troglitazone] | – | – | – | – | – | 0.710 L/kg | 0.00347 | 0.55 | in vivo CL_(L/hr/kg)_Human [4, 12]: 0.210 L/h/kg
23 | CCCC(CCC)C(=O)O [Valproic Acid] | – | – | – | – | – | 0.145 L/kg | 0.091 | 0.64 | in vivo CL_(L/hr/kg)_Human [4, 12]: 0.008 L/h/kg
24 | O=C1Cc2cc(CCN3CCN(c4nsc5ccccc45)CC3)c(Cl)cc2N1 [Ziprasidone] | – | – | – | – | – | 1.000 L/kg | 0.0012 | 0.81 | in vivo CL_(L/hr/kg)_Human [4, 12]: 0.504 L/h/kg
25 | O=P(O)(O)C(O)(Cn1ccnc1)P(=O)(O)O [Zoledronic Acid] | – | – | – | – | – | 0.600 L/kg | 0.780 | 0.59 | in vivo CL_(L/hr/kg)_Human [4, 12]: 0.132 L/h/kg
26 | Oc1ccc2c(c1)[C@@]13CCCC[C@@]1(O)[C@@H](C2)N(CC1CCC1)CC3 [butorphanol, reference compound] | – | 0.170 | – | 2.460 L/h/kg | – | – | – | – | in vivo Vd_(L/kg)_Human ([1]; in vivo, iv): 12.000 L/kg; Rb_Human (blood-to-plasma concentration ratio) ([3]; plasma): 1.90
27 | Isosorbide mononitrate | – | 0.850 | – | 0.102 L/h/kg | – | – | – | – | in vivo Vd_(L/kg)_Human ([1]; in vivo, iv): 0.600 L/kg; fp_Human ([2]; human plasma free fraction, median if multiple values were reported, ref numbers in Table S1): 0.850; Rb_Human (blood-to-plasma concentration ratio) ([3]; plasma): 1.00
